Experimental findings from patent publication EP4342890A1, “PLATFORM AND SCAFFOLD FOR FAP TARGETING AGENTS” (Erasmus University Rotterdam Medical Center, priority 2022, dated 2024) are described below.

Structures are written as SMILES.

One data set has as its target T1, FAP (Homo sapiens, UniProt Q12884).
T1 sequence (Q12884 1-760): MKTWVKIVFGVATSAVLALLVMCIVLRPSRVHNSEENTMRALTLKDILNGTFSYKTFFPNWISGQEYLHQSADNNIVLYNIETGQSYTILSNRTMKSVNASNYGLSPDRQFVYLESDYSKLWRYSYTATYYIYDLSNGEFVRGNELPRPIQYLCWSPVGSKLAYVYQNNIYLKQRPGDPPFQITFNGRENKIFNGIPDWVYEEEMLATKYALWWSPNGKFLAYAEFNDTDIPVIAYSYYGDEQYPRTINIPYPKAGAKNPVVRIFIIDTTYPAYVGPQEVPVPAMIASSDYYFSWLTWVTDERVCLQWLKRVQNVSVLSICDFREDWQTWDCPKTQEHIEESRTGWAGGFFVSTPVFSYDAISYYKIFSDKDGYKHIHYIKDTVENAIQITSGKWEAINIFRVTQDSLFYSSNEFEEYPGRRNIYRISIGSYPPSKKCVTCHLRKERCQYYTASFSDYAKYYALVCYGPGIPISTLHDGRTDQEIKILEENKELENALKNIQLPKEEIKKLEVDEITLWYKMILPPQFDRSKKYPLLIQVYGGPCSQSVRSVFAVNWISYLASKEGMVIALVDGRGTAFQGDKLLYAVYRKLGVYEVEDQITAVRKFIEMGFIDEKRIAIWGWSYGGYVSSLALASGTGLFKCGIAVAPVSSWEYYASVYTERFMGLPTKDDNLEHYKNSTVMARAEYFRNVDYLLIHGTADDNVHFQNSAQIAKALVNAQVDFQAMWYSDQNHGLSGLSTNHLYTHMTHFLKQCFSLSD
As to the kind of experiment: In vitro inhibition assay on human FAP (Z-GP-AMC substrate). The data set is classed as biochemical. Conditions: enzymatic assay; 20 µM Z-GP-AMC, 20 nM FAP; unit inferred. The method, then:
Enzymatic activity of human FAP (hFAP) and mouse FAP (mFAP) on the Z-GP-AMC substrate was measured at room temperature on a Hidex microplate reader by monitoring the fluorescence at an excitation wavelength of 360 nm and an emission wavelength of 465 nm. The reaction mixture contained 20 µM substrate, 20 nM FAP, assay buffer (50 mM Tris, 100 mM NaCl, 1 mM EDTA, pH 7.4) and tested compound (serial dilution from 10^-6 to 10^-12) in a total volume of 50 µL.

In another data set the target is T2, PREP (Homo sapiens, UniProt P48147).
T2 sequence (P48147 1-710): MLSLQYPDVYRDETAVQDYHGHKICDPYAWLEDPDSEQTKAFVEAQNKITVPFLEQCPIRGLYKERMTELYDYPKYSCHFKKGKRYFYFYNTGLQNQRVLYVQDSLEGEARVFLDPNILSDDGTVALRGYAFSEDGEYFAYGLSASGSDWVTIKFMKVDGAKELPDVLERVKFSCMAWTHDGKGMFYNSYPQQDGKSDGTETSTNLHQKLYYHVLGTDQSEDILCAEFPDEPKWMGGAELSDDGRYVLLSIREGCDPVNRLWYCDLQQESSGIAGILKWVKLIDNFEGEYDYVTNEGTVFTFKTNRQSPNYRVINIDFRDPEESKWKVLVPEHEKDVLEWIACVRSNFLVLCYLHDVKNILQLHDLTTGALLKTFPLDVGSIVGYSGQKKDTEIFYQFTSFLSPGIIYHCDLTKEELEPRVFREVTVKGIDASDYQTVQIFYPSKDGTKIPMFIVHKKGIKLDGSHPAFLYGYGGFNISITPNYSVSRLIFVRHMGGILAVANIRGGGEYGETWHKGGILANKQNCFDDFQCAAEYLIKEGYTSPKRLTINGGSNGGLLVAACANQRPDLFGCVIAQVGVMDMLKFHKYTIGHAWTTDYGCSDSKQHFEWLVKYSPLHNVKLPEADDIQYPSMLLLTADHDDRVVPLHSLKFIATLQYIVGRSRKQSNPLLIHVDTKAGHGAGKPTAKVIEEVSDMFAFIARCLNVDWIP
The data set is described as follows: In vitro inhibition assay on PREP (Z-GP-AMC substrate). The data set is classed as biochemical. The note with it: enzymatic assay; 20 µM substrate, 2 nM PREP; unit inferred. Here is the method:
Enzymatic activity of PREP on the Z-GP-AMC substrate was measured at room temperature on a Hidex microplate reader by monitoring the fluorescence at an excitation wavelength of 360 nm and an emission wavelength of 465 nm. The reaction mixture contained 20 µM substrate, 2 nM PREP, assay buffer (50 mM Tris, 100 mM NaCl, 1 mM EDTA, pH 7.4) and tested compound (serial dilution from 10-6 to 10-12) in a total volume of 50 µL.

For a further data set, the system named is HT-1080.hFAP tumor. As to the kind of experiment: Biodistribution study in HT-1080.hFAP tumor bearing mice. The data set is classed as in vivo. Conditions: indium-111 labelled. The text has this: Six-week-old male Balb/c nu/nu-specific and opportunistic pathogen-tree (SOPF) mice were housed in individually ventilated cages, with 4 mice per cage. Upon arrival, mice were acclimated for 1 week, with access to food and water ad libitum. Mice were subcutaneously inoculated on the right shoulder with U-87 or HT-1080.hFAP cells (1 × 10^6 cells). Xenografts were allowed to grow until they reached an appropriate size at the start of the studies. All animal experiments were approved by the Animal Welfare Committee of the Erasmus MC and were conducted in agreement with institutional guidelines (license number: AVD101002017867).
Biodistribution studies were performed to determine tumor and organ uptake of the radiolabeled eFAP compounds. Animals (n = 4 for each time point and each compound) were injected intravenously with an average of 100 kBq/0.5 nmol at t=0. At 3 selected time points (1, 4 and 24 h) p.i. blood was collected via cardiac puncture under isoflurane/O2 anesthesia, after which the mice were sacrificed. The tumor and organs of interest (prostate, pancreas, spleen, gall bladder, liver, stomach, small intestine, coecum, colon, adrenals, kidney, lung, heart, salivary glands, muscle, bone, brain were excised, washed in PBS and blotted dry. The blood, tumor, and relevant organs were weighed and measured in a γ-counter. To determine the total injected radioactivity per animal, calibration curve with indium-111 and lutetium-177 were determined. The percentage of injected dose per gram (% ID/g) was determined for each tissue sample and corrected for both the injected volume and % ID present at the injection site (the tail).
Comparison of the biodistribution in selected organs of [^111In]In-FAPI-46 and [^111In]In-eFAP-6 in HT-1080.hFAP tumor bearing mice are given in Figure 8.

Setting [1] is: intravenous, HT-1080.hFAP tumor bearing mice.

With `N#C[C@@H]1CC(F)(F)CN1C(=O)CNC(=O)c1ccnc2c(OCCCNC(=O)CN3CCN(CC(=O)O)CCN(CC(=O)O)CCN(CC(=O)O)CC3)cccc12` [eFAP-6, (S)-2,2',2"-(10-(2-((3-((4-((2-(2-Cyano-4,4-difluoropyrrolidin-1-yl)-2-oxoethyl)carbamoyl)quinolin-8-yl)oxy)propyl)amino)-2-oxoethyl)-1,4,7,10-tetraazacyclododecane-1,4,7-triyl)triacetic acid], the IC50 against FAP came out at 1.6 ± 0.5 nM; against PREP it was 108 ± 42 nM. For the same compound, the tumor targeting performance result with HT-1080.hFAP tumor (compared with the clinical reference) is “comparable with that of FAPI-46”. Also, in the data set with HT-1080.hFAP tumor (setting [1]), the “background uptake in healthy organs” value is listed as “low background uptake in healthy organs”. Besides, in the data set on HT-1080.hFAP tumor (setting [1]), the tumor uptake entry is “high and rapid tumor uptake”. Further, the “clearance from the body” value in the data set with HT-1080.hFAP tumor (intravenous, mice) is “rapid clearance from the body”.

The term IC50 denotes the midpoint of a concentration-inhibition curve. A low value points to inhibition by little substance.
